{"source": "patent US11846640B2", "about": "“Identification of anticoagulants in a sample” (DSM IP Assets B.V., priority 2013, dated 2023)", "type_in_all_cases": "biochemical, human", "key": {"plasma samples": {"tested_on": "plasma samples", "assay": "aPTT (HemosIL aPTT SP) clotting time", "conditions": "for Clotting time with aPTT: Table 6, spiked plasma, mean", "method": "In order to address the above question, i.e. to determine the nature of an anticoagulant in a sample, a combination of several methods has to be performed, including PiCT® Method 1, PiCT® Method 4, aPTT (HemosIL™ aPTT SP), PT (HemosIL™ PT recombiplastin), and sometimes even a modified PiCT® Method 1 wherein polybrene has been added. In order to simulate this, plasma samples spiked with different levels of anticoagulants were analyzed using the ACL TOP® 500 analyzer. For each drug, a specific pattern was obtained, i.e. clotting times within the RR and clotting times above the RR, depending on the used testing method, which is unique at least for the class of anticoagulant or even for a specific anticoagulant."}, "normal plasma pool (NPP) [1]": {"tested_on": "normal plasma pool (NPP)", "assay": "PiCT Method 4 (inverted PiCT) clotting time on ACL TOP 500", "conditions": "for Clotting time: Table 10A, PiCT Method 4, NPP spiked, mean n = 4; for PiCT ® method 4 clotting time: Table 11", "method": "The present invention is in one aspect directed to the use of a clotting assay, in particular the PiCT® testing method on a detection system such as e.g. the ACL TOP® 500 analyzer and to a method to quantitatively and qualitatively detect anticoagulants in a sample, e.g. blood or plasma. […] PiCT® Method 4 or PiCT® inverted includes that first the start reagent is added to the sample, the mixture allowed to proceed according to the manufacturer's instructions followed by addition of the activator, i.e. a reversed order compared to standard PiCT® (see above). PiCT® Method 1 to 4 is described in more detail in the Examples.\n(§1) The 4 methods (see above) are in more detail described in the Examples. Specific pipetting schemes were designed using NPP spiked with incremental amounts of anticoagulants in order to achieve high reproducibility of the test system, which is required for drug identification including use in a POC system. With regards to the ACL TOP® 500 analyzer, PiCT® Method 1 to 4 has been established as follows: • PiCT® Method 1: 50 μl of plasma is incubated for 180 sec with 50 μl of reagent 1 and afterwards 50 μl of reagent 2 is added and the time to clot is recorded on the ACL TOP® 500 (i.e. pipetting scheme: P-50/A-50/I-180/50-S).\nAfter calculation of the RR for the different kind of anticoagulants (see Example 1) samples of NPP spiked with incremental amounts of anticoagulants were used in the ACL TOP® 500, wherein 45 μl start reagent was incubated with 140 μl plasma for 60 sec. The time to clot was recorded after addition of 40 μl of activator (i.e. so-called inverted PiCT®)."}, "normal plasma pool (NPP) [2]": {"tested_on": "normal plasma pool (NPP)", "assay": "PiCT Method 1 (standard Pefakit PiCT) clotting time on ACL TOP 500", "conditions": "for Clotting time with PiCT ® Method 1: spiked plasma", "excerpt": "As described by Korte et al. (supra) or in EP 1240528, Pefakit® PiCT® is a functional clotting assay based on the direct activation of the prothrombinase complex which results in a fine-tuned analytical output directly proportional to the final anticoagulant activity of the factor Xa or factor IIa inhibitors (see Calatzis, Haemostasis 2000, 30:172-174). To perform the Pefakit® PiCT® test (referred to herein as standard “PiCT® or PiCT® Method 1), a defined amount of PiCT® activator (=reagent 1) is added to a sample, such as, e.g., plasma. The mixture is allowed to proceed at 37° C. for a specific period of time. The Start reagent (=reagent 2) is then added to the mixture and the time required for clot formation is measured. The presence of anticoagulants in the samples dose-dependently prolongs the time to clot. Pefakit® PiCT® is adapted to laboratory instruments based on mechanical or optical detection systems, including but not limited to ACL TOP® family (Instrumentation Laboratory), preferably ACL TOP® 500, STA Compact® series (Stago) or the BCS® XP series (Siemens).\nas §1, with “P-50/A-50/I-180/50-S). This method is in particularly useful for detection of UFH, LMWH or hirudin. • PiCT® Method 2: P-75/A-65/I-180/35-S on the ACL TOP® 500 or P-80/A-65/I-180/40-S on the STA Compact® or P-75/A-65/I-180/S-40 on the BCS® XP. This method is in particularly useful for fondaparinux. • PiCT® Method 3: P-90/A-70/I-180/40-S on the ACL TOP® 500 or STA Compact®, or P-70/A-60/I-180/45-S on the BCS® XP. This method is in particularly useful for dabigatran or argatroban. • PiCT® Method 4: P-140/S-45/I160/A-40 on the ACL TOP® 500 or STA Compact®, or P-125/S-45/I-150/A-40 on the BCS® XP. This method is in particularly useful for rivaroxaban or apixaban.” for “P-50/A-50/I-180/50-S).”\nWith the normal PiCT®, i.e. PiCT® Method 1, wherein 50 μl of plasma is mixed with the same amount of reagent 1 (PiCT® activator), incubated for 180 sec and mixed with the same amount of reagent 2 (PiCT® start reagent) in a ACL TOP® 500 analyzer, the presence of NOACs cannot be determined in a sample. This is true even at high levels of said drugs in the sample, i.e. in the range of 300 ng/ml. Thus, in order to determine which NOAC is present in the sample, a combination of PiCT® Method 1 and PiCT® method 4 has to be used (see above for detailed description). To confirm this, spiked plasma samples with different levels of NOACs were prepared and the clotting time measured using first PiCT® Method 1 followed by PiCT® Method 4. […] In case of dabigatran present in the sample, both PiCT® Method 1 (which had to be adapted, i.e. PiCT® Method 3) and 4 are out of range as indicated in bold."}}, "data": [{"smiles": "CC1CNc2c(cccc2S(=O)(=O)N[C@@H](CCCNC(=N)N)C(=O)N2CC[C@@H](C)C[C@@H]2C(=O)O)C1", "note": "(stereo partly shown) [argatroban]", "values": [{"measurement": "Clotting time with aPTT", "setting": "plasma samples; 0.3 μg", "result": 61.7, "unit": "s"}, {"measurement": "Clotting time with aPTT", "setting": "plasma samples; 1.5 μg", "result": 106.2, "unit": "s"}, {"measurement": "Clotting time with PiCT ® Method 4", "setting": "normal plasma pool (NPP) [1]; Table 4, NPP spiked with 0.3 μg per ml", "result": 147, "unit": "s"}, {"measurement": "Clotting time with PiCT ® Method 4", "setting": "normal plasma pool (NPP) [1]; Table 6, spiked plasma, 0.3 μg, mean", "result": 147.4, "unit": "s"}, {"measurement": "Clotting time with PiCT ® Method 4", "setting": "normal plasma pool (NPP) [1]; Table 6, spiked plasma, 1.5 μg, mean", "result": 300.0, "unit": "s"}, {"measurement": "Clotting time with PiCT ® Method 1", "setting": "normal plasma pool (NPP) [2]; Table 6, 0.3 μg, mean", "result": 98.5, "unit": "s"}, {"measurement": "Clotting time with PiCT ® Method 1", "setting": "normal plasma pool (NPP) [2]; Table 6, 1.5 μg, mean", "result": 150.3, "unit": "s"}]}, {"smiles": "O=C(NC[C@H]1CN(c2ccc(N3CCOCC3=O)cc2)C(=O)O1)c1ccc(Cl)s1", "note": "[rivaroxaban]", "values": [{"measurement": "Clotting time with aPTT", "setting": "plasma samples; 50 ng", "result": 34.5, "unit": "s"}, {"measurement": "Clotting time with aPTT", "setting": "plasma samples; 200 ng", "result": 49.6, "unit": "s"}, {"measurement": "aPTT clotting time relative to reference range (RR)", "setting": "plasma samples; only at higher doses, in the range of 200 ng or more", "result": "above the RR"}, {"measurement": "Clotting time with PiCT ® Method 4", "setting": "normal plasma pool (NPP) [1]; Table 4, NPP spiked with 20 ng per ml", "result": 70, "unit": "s"}, {"measurement": "Clotting time with PiCT ® Method 4", "setting": "normal plasma pool (NPP) [1]; Table 4, NPP spiked with 35 ng per ml", "result": 80, "unit": "s"}, {"measurement": "Clotting time with PiCT ® Method 4", "setting": "normal plasma pool (NPP) [1]; Table 5, spiked plasma, 20 ng per ml", "result": 70, "unit": "s"}, {"measurement": "Clotting time with PiCT ® Method 4", "setting": "normal plasma pool (NPP) [1]; Table 5, spiked plasma, 35 ng per ml", "result": 80, "unit": "s"}, {"measurement": "Clotting time with PiCT ® Method 4", "setting": "normal plasma pool (NPP) [1]; Table 5, spiked plasma, 300 ng per ml", "result": 162.1, "unit": "s"}, {"measurement": "Clotting time with PiCT ® Method 4", "setting": "normal plasma pool (NPP) [1]; Table 6, spiked plasma, 50 ng, mean", "result": 83.6, "unit": "s"}, {"measurement": "Clotting time with PiCT ® Method 4", "setting": "normal plasma pool (NPP) [1]; Table 6, spiked plasma, 200 ng, mean", "result": 132.8, "unit": "s"}, {"measurement": "Clotting time", "setting": "normal plasma pool (NPP) [1]; 5 ng/ml", "result": 71, "unit": "s"}, {"measurement": "Clotting time", "setting": "normal plasma pool (NPP) [1]; 10 ng/ml", "result": 83, "unit": "s"}, {"measurement": "Clotting time", "setting": "normal plasma pool (NPP) [1]; 50 ng/ml", "result": 118, "unit": "s"}, {"measurement": "Clotting time", "setting": "normal plasma pool (NPP) [1]; 100 ng/ml", "result": 149, "unit": "s"}, {"measurement": "Clotting time", "setting": "normal plasma pool (NPP) [1]; 200 ng/ml", "result": 191, "unit": "s"}, {"measurement": "Clotting time", "setting": "normal plasma pool (NPP) [1]; 300 ng/ml", "result": 220, "unit": "s"}, {"measurement": "Clotting time", "setting": "normal plasma pool (NPP) [1]; 400 ng/ml", "result": 248, "unit": "s"}, {"measurement": "Clotting time", "setting": "normal plasma pool (NPP) [1]; 500 ng/ml", "result": 270, "unit": "s"}, {"measurement": "Clotting time", "setting": "normal plasma pool (NPP) [1]; 600 ng/ml", "result": 278, "unit": "s"}, {"measurement": "PiCT ® method 4 clotting time", "setting": "normal plasma pool (NPP) [1]; spiked plasma, 20 ng/mL (wash off level)", "result": "70 sec (n = 3)"}, {"measurement": "PiCT ® method 4 clotting time", "setting": "normal plasma pool (NPP) [1]; spiked plasma, 35 ng/mL (wash off level)", "result": "80 sec (n = 3)"}, {"measurement": "Clotting time with PiCT ® Method 1", "setting": "normal plasma pool (NPP) [2]; Table 5, 20 ng per ml (title: Method 3 for dabigatran)", "result": 17, "unit": "s"}, {"measurement": "Clotting time with PiCT ® Method 1", "setting": "normal plasma pool (NPP) [2]; Table 5, 35 ng per ml (title: Method 3 for dabigatran)", "result": 18, "unit": "s"}, {"measurement": "Clotting time with PiCT ® Method 1", "setting": "normal plasma pool (NPP) [2]; Table 5, 300 ng per ml (title: Method 3 for dabigatran)", "result": 29.3, "unit": "s"}, {"measurement": "Clotting time with PiCT ® Method 1", "setting": "normal plasma pool (NPP) [2]; Table 6, 50 ng, mean", "result": 19.0, "unit": "s"}, {"measurement": "Clotting time with PiCT ® Method 1", "setting": "normal plasma pool (NPP) [2]; Table 6, 200 ng, mean", "result": 25.5, "unit": "s"}, {"measurement": "Clotting time with standard PiCT (Method 1) relative to reference range (RR)", "setting": "normal plasma pool (NPP) [2]; concentrations in the range of about 300 ng/ml in the sample", "result": "in the RR"}]}]}
